This is an account of results in patent US20230014181A1, “CULTURE SYSTEM AND METHODS FOR IMPROVED MODELING OF NEUROLOGICAL CONDITIONS” (Genentech, Inc., priority 2021, published 2023).

Assay [1] has as its system human iPSC neurons, astrocytes and microglia treated with 5 μM sAβ42s. Briefly: Focused small molecule screen, triple culture (neuron, astrocyte, microglia), rescue from sAβ42s toxicity. It is filed as cell-based. The settings on record: for percent rescue from sAβ42s toxicity at 50 µM / percent rescue from sAβ42s toxicity at 12.5 µM: Homo sapiens, iPSC. The gist of the method:
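A hit was any compound giving ≥30% rescue of dendrite area (MAP2), synapse count, CUX2 cell count or axon area when dosed against 5 μM sAβ42s toxicity. Testing used iPSC-derived double (neuron/astrocyte) or triple (plus microglia) cultures, at four concentrations of 50, 25, 12.5 and 6.25 μM for double and 50, 12.5, 3.1 and 0.78 μM for triple cultures.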

The test system of assay [2] is human iPSC neurons and astrocytes treated with 5 μM sAβ42s. Briefly: Focused small molecule screen, double culture (neuron, astrocyte), rescue from sAβ42s toxicity, high content imaging. It is filed as cell-based. As to conditions: double culture, 5 μM sAβ42s; for percent rescue from sAβ42s toxicity at 25 µM / percent rescue from sAβ42s toxicity at 50 µM / percent rescue from sAβ42s toxicity at 6.25 µM / percent rescue from sAβ42s toxicity at 12.5 µM: Homo sapiens, iPSC. The gist of the method:
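Human iPSC neuron–astrocyte cultures given 5 μM sAβ42 oligomers plus compounds at 50, 25, 12.5 and 6.25 μM (10× additions). Fixed cells immunostained for MAP2, synapsin 1/2, CUX2 and beta III tubulin, imaged by confocal high-content microscopy; % rescue computed, ≥30% in any readout scored as hit.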

[3] abbreviates: 50.00 μM compound, read-out: % B3T rescue.
[4] abbreviates: 50.00 μM compound, read-out: % MAP2 rescue.
The mark [5] stands for this setting: 50.00 μM compound, read-out: % Synapse rescue.
The mark [6] stands for this setting: 25 μM compound, read-out: % B3T rescue.
Setting [7] is: 25 μM compound, read-out: % Cux2 rescue.
The mark [8] stands for this setting: 25 μM compound, read-out: % MAP2 rescue.
[9] abbreviates: 25 μM compound, read-out: % Synapse rescue.
The mark [10] stands for this setting: 50 μM compound, read-out: % B3T rescue.
[11] abbreviates: 50 μM compound, read-out: % Cux2 rescue.
[12] abbreviates: 50 μM compound, read-out: % MAP2 rescue.
Where [13] appears, read: 50 μM compound, read-out: % Synapse rescue.

Where two headings read alike, the source gives them in different places. Where a SMILES comes first, the peptide text is derived from it. The star is where a group is joined. Cbz = O=C(OCc1ccccc1)*

As for `O=c1cc(-c2ccc(O)c(O)c2)oc2cc(O)cc(O)c12` [Luteolin], the percent rescue from sAβ42s toxicity at 50 µM in assay [1] (setting [3]) turned out to be 91%; in assay [1] (setting [4]), 73%; in assay [1] (setting [5]), 75%; in assay [2] (setting [10]), 66%; in assay [2] (setting [11]), 19%; in assay [2] (setting [12]), 55%. Further, in assay [2] (setting [13]), the percent rescue from sAβ42s toxicity at 50 µM amounted to 37%. Also, the percent rescue from sAβ42s toxicity at 25 µM in assay [2] (setting [6]) is 29%; in assay [2] (setting [7]) it was 12%; in assay [2] (setting [8]), 26%; in assay [2] (setting [9]), 13%.
As to `CC(C)C[C@@H](C=O)NC(=O)[C@H](CC(C)C)NC(=O)[C@H](CC(C)C)NC(=O)OCc1ccccc1` [MG-132] (Cbz-Leu-Leu-Leu-aldehyde), the percent rescue from sAβ42s toxicity at 12.5 µM is 35% in assay [1] (12.50 μM compound, read-out: % B3T rescue); 18% in assay [1] (12.50 μM compound, read-out: % MAP2 rescue); -7% in assay [1] (12.50 μM compound, read-out: % Synapse rescue); 7% in assay [2] (12.5 μM compound, read-out: % B3T rescue); 87% in assay [2] (12.5 μM compound, read-out: % Cux2 rescue); 24% in assay [2] (12.5 μM compound, read-out: % MAP2 rescue). In addition, the percent rescue from sAβ42s toxicity at 12.5 µM in assay [2] (12.5 μM compound, read-out: % Synapse rescue) came to 4%. Moreover, the percent rescue from sAβ42s toxicity at 50 µM in assay [1] (setting [3]) was 46%; in assay [1] (setting [4]), 25%; in assay [1] (setting [5]), -11%; in assay [2] (setting [10]), 57%; in assay [2] (setting [11]), 90%; in assay [2] (setting [12]), 25%. Also, the percent rescue from sAβ42s toxicity at 50 µM in assay [2] (setting [13]) was found to be 4%. In addition, the percent rescue from sAβ42s toxicity at 6.25 µM in assay [2] (6.25 μM compound, read-out: % B3T rescue) was -3%; in assay [2] (6.25 μM compound, read-out: % Cux2 rescue) it was 80%; in assay [2] (6.25 μM compound, read-out: % MAP2 rescue) it was 18%; in assay [2] (6.25 μM compound, read-out: % Synapse rescue), -6%. Further, the percent rescue from sAβ42s toxicity at 25 µM in assay [2] (setting [6]) is 30%; in assay [2] (setting [7]) it was 91%; in assay [2] (setting [8]) it was 26%; in assay [2] (setting [9]), 8%.
For `C=C[C@@]1(C)CC(=O)[C@]2(O)[C@@]3(C)[C@@H](O)CCC(C)(C)[C@@H]3[C@H](OC(=O)CCN(C)C)[C@H](OC(C)=O)[C@@]2(C)O1.Cl` [NKH 477], the “% B3T rescue” value stood at 42% in assay [1] (3.13 μM compound); 49% in assay [1] (12.50 μM compound); 81% in assay [1] (50.00 μM compound); 38% in assay [2] (6.25 μM compound); 38% in assay [2] (12.5 μM compound); 35% in assay [2] (25 μM compound). Besides, the “% B3T rescue” value in assay [2] (50 μM compound) was 38%. The “% MAP2 rescue” value is 17% in assay [1] (3.13 μM compound); 9% in assay [1] (12.50 μM compound); 53% in assay [1] (50.00 μM compound); 39% in assay [2] (6.25 μM compound); 45% in assay [2] (12.5 μM compound); 43% in assay [2] (25 μM compound). Moreover, the “% MAP2 rescue” value in assay [2] (50 μM compound) was found to be 44%. For the same compound, the “% Synapse rescue” value in assay [1] (3.13 μM compound) was 12%; in assay [1] (12.50 μM compound), 8%; in assay [1] (50.00 μM compound), 38%; in assay [2] (6.25 μM compound), 7%; in assay [2] (12.5 μM compound), 5%; in assay [2] (25 μM compound), −4%. Also, in assay [2] (50 μM compound), the “% Synapse rescue” value is reported as −5%. Moreover, the “% Cux2 rescue” value worked out at 21% in assay [2] (6.25 μM compound), 24% in assay [2] (12.5 μM compound), 21% in assay [2] (25 μM compound) and 45% in assay [2] (50 μM compound).
For `CC(=O)c1c(C)c2cnc(Nc3ccc(N4CCNCC4)cn3)nc2n(C2CCCC2)c1=O` [PD 0332991 isethionate], the percent rescue from sAβ42s toxicity at 50 µM in assay [1] (setting [3]) was 90%; in assay [1] (setting [4]), -79%; in assay [1] (setting [5]) it was -29%; in assay [2] (setting [10]) it was 69%; in assay [2] (setting [11]), -37%; in assay [2] (setting [12]), -97%. Also, the percent rescue from sAβ42s toxicity at 50 µM in assay [2] (setting [13]) is -15%.
For `COC(=O)C1(C)c2[nH]c3ccccc3c2CCN1C(=O)CCl` (stereo not drawn) [PDI Inhibitor 16F16], the “% B3T rescue” value in assay [1] (3.13 μM compound) is 71%; in assay [1] (12.50 μM compound), 43%; in assay [1] (50.00 μM compound), 42%; in assay [2] (6.25 μM compound) it was 27%; in assay [2] (12.5 μM compound), 3%; in assay [2] (25 μM compound), −46%. In addition, the “% B3T rescue” value in assay [2] (50 μM compound) was −22%. The “% MAP2 rescue” value is 44% in assay [1] (3.13 μM compound); −6% in assay [1] (12.50 μM compound); −5% in assay [1] (50.00 μM compound); 6% in assay [2] (6.25 μM compound); 1% in assay [2] (12.5 μM compound); −10% in assay [2] (25 μM compound). For the same compound, the “% MAP2 rescue” value in assay [2] (50 μM compound) was −12%. Further, the “% Synapse rescue” value in assay [1] (3.13 μM compound) is 43%; in assay [1] (12.50 μM compound), 8%; in assay [1] (50.00 μM compound) it was −1%; in assay [2] (6.25 μM compound), 5%; in assay [2] (12.5 μM compound), −1%; in assay [2] (25 μM compound) it was −8%. For the same compound, the “% Synapse rescue” value in assay [2] (50 μM compound) is on record as −13%. Besides, the “% Cux2 rescue” value in assay [2] (6.25 μM compound) came to 46%; in assay [2] (12.5 μM compound) it was 45%; in assay [2] (25 μM compound), 66%; in assay [2] (50 μM compound), 34%.
With `O=C1NC(=O)c2c1c1c3ccccc3n3c1c1c2c2ccccc2n1C1CCC3O1` [SB 218078], in assay [1] (0.78 μM compound), the “% B3T rescue” value came out at 38%, the “% MAP2 rescue” value stood at 10% and the “% Synapse rescue” value worked out at 14%. Further, in assay [1] (50.00 μM compound), the “% B3T rescue” value is listed as −11%, the “% MAP2 rescue” value amounted to 53% and the “% Synapse rescue” value is reported as 19%. Moreover, in assay [2] (50 μM compound), the “% B3T rescue” value was 72%, the “% Cux2 rescue” value is −39%, the “% MAP2 rescue” value is −92% and the “% Synapse rescue” value was −15%.
Consider `O=C1NC(=O)C(c2ccccc2[N+](=O)[O-])=C1Nc1ccc(O)c(Cl)c1` [SB 415286], for which, in assay [1] (50.00 μM compound), the “% B3T rescue” value is 78%, the “% MAP2 rescue” value came out at 42% and the “% Synapse rescue” value was found to be 40%. Also, in assay [2] (50 μM compound), the “% B3T rescue” value is 39%, the “% Cux2 rescue” value was −13%, the “% MAP2 rescue” value is 19% and the “% Synapse rescue” value is 12%.
Consider `CN(C)S(=O)(=O)c1ccc2c(c1)/C(=C/c1cc3c([nH]1)CCCC3)C(=O)N2` [SU6656], for which the “% B3T rescue” value in assay [1] (0.78 μM compound) came to 80%; in assay [1] (3.13 μM compound) it was 92%; in assay [1] (12.50 μM compound), 71%; in assay [1] (50.00 μM compound), 48%; in assay [2] (6.25 μM compound), 4%; in assay [2] (12.5 μM compound) it was 3%. Besides, the “% B3T rescue” value in assay [2] (25 μM compound) is −37%; in assay [2] (50 μM compound), −188%. Further, the “% MAP2 rescue” value in assay [1] (0.78 μM compound) is listed as 58%; in assay [1] (3.13 μM compound), 72%; in assay [1] (12.50 μM compound), 53%; in assay [1] (50.00 μM compound) it was 40%; in assay [2] (6.25 μM compound), 5%; in assay [2] (12.5 μM compound) it was 4%. Besides, the “% MAP2 rescue” value in assay [2] (25 μM compound) and in assay [2] (50 μM compound) was 3% in each case. In addition, the “% Synapse rescue” value in assay [1] (0.78 μM compound) was 51%; in assay [1] (3.13 μM compound), 64%; in assay [1] (12.50 μM compound), 49%; in assay [1] (50.00 μM compound), 36%; in assay [2] (6.25 μM compound) it was 13%; in assay [2] (12.5 μM compound) it was 11%. Moreover, the “% Synapse rescue” value in assay [2] (25 μM compound) worked out at 15%; in assay [2] (50 μM compound) it was 11%. The “% Cux2 rescue” value in assay [2] (6.25 μM compound) was 101%; in assay [2] (12.5 μM compound), 120%; in assay [2] (25 μM compound), 126%; in assay [2] (50 μM compound) it was 106%.
